Test results taken from patent US9403822B2, “Apoptosis-inducing agents for the treatment of cancer and immune and autoimmune diseases” (AbbVie Inc., priority 2010, dated 2016).
Like-named read-outs stand apart in the source and are kept apart here.

Experiments:
[1] = Solubility determination in aqueous media; conditions: for solubility: phosphate buffer, pH 7.4, aqueous buffer, thermodynamic from solid
Procedure: Reagents used included 0.1 N HCl, J T Baker Lot G08515; and 50 mM Phosphate pH 7.4, μ=0.155 w/NaCl, NB93214-089, Equipment/Instruments used included balance: Mettler Toledo, UMX2, LC805269; Rainin Pipette; 1000 μL RF09683 μL, 200 μL, RF20783; water bath: Vankel, LC 954896, set at 25° C. and 25 RPM, Thermometer: TB085699); and water bath: Vankel, LC 127535, set at 37° C. and 25 RPM, Thermometer: TB096544).
Examples were tested in aqueous media at 25° C. or 37° C. Excess amount of the bulk drug was weighed out and mixed with an aliquot of target media in a clear glass vial. The vial was sealed with cap and wrapped with aluminum foil, then tumbled in a 25° C. or 37° C. water bath as appropriate. When equilibration was completed, she samples were removed from the water bath and the final pH's were measured. The suspensions were filtered through 4 mm, 0.2 μm Millex-LG syringe filters (hydrophilic PTFE membrane, Millipore, Lot N9JN70696). Each filter was used only for one sample and the first three droplets were discarded. The filtrate was assayed after appropriate dilution with the same solvent as used for stock solution. Three replicates were prepared. The concentration of the sample was calculated against the calibration curve for the compound.

RS4;11 cells = test: RS4;11 cell viability assay (CellTiter Glo); type: cell-based; conditions: acute lymphoblastic leukemia cell line RS4;11, 10% human serum, 48 hours
From the text: The acute lymphoblastic leukemia (ALL) cell line RS4;11 was used as the primary human cell line to assess the cellular activity of Bcl-2 selective agents in vitro and their efficacy in vivo. Previous studies have shown by BH3 profiling, a mitochondrial assay that classifies blocks in the intrinsic apoptotic pathway, that RS4;11 cells were highly dependant on BCL-2 for survival and sensitive to the Bcl-2 family member inhibitor ABT-737 (Blood, 2008, Vol. III, 2300-2309).
RS4;11 cells were cultured in RPMI-1640 supplemented with 2 mM L-glutamine, 10% FBS, 1 mM sodium pyruvate, 2 mM HEPES, 1% penicillin/streptomycin (Invitrogen), 4.5 g/L glucose and maintained at 37 C containing 5% CO2. To test for the cellular activity of compounds in vitro, cells were treated at 50,000 cells per well in 96-well microliter plates in the presence of 10% human serum for 48 hours in a humidified chamber with 5% CO2. Cell cytotoxicity EC50 values were assessed using CellTiter Glo (Promega) according to the manufacturers recommendations. The EC50 values were determined as a percentage of viable cells following treatment compared to the untreated control cells.

GST-Bcl-2 = GST-Bcl-2 (Homo sapiens (Human), UniProt P10415); test: Time Resolved-Fluorescence Resonance Energy Transfer (TR-FRET) Bcl-2 binding assay; conditions: F-Bak peptide probe 100 nM, GST-Bcl-2 1 nM, Tb-anti-GST 1 nM; Wang's equation
GST-Bcl-2, sequence (P10415 whole entry): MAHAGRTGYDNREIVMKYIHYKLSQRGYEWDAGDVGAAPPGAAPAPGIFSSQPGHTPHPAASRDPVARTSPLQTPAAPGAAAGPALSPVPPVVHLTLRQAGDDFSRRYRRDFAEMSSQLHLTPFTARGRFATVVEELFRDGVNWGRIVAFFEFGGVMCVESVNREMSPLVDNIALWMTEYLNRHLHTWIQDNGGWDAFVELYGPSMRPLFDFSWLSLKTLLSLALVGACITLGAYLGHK
Procedure: Determination of the utility of compounds having Formula (I) as binders to and inhibitors of anti-apoptotic Bcl-2 proteins was performed using the Time Resolved-Fluorescence Resonance Energy Transfer (TR-FRET) Assay. Tb-anti-GST antibody was purchased from Invitrogen (Catalog No. PV4216). Representative compounds were serially diluted in dimethyl sulfoxide (DMSO) starting at 50 μM (2× starting concentration; 10% DMSO) and 10 μL were transferred into a 384-well plate. […] For each assay, the probe/antibody and protein/probe/antibody were included on each assay plate as negative and positive controls, respectively. Fluorescence was measured on the ENVISION plate reader (Perkin Elmer) using a 340/35 nm excitation filter and 520/525 (F-Bak peptide) and 495/510 nm (Tb-labeled anti-Histidine antibody) emission filters. Inhibition constants (Ki) are shown in TABLE 2 below and were determined using Wang's equation (Wang Z.-X. An Exact Mathematical Expression For Describing Competitive Binding Of Two Different Ligands To A Protein Molecule. FEBS Lett. 1995, 360:111-4).

solubility [1] | EC50 (RS4;11 cells) | Aqueous Solubility (pH 7.4) | Molecule | Ki (GST-Bcl-2) | Aqueous Solubility (pH 7.4) ([1]; 50 mM phosphate pH 7.4, 25° C. or 37° C.)
< 1 µg/mL | – | – | CO[C@H]1CC[C@H](CNc2ccc(S(=O)(=O)NC(=O)c3ccc(N4CCN(CC5=C(c6ccc(Cl)cc6)CC(C)(C)CC5)CC4)cc3Oc3cnc4[nH]ccc4c3)cc2[N+](=O)[O-])CC1 [Example 1M, Trans-4-(4-{[2-(4-chlorophenyl)-4,4-dimethylcyclohex-1-en-1-yl]methyl}piperazin-1-yl)-N-[(4-{[(4-methoxycyclohexyl)methyl]amino}-3-nitrophenyl)sulfonyl]-2-(1H-pyrrolo[2,3-b]pyridin-5-yloxy)benzamide] | – | –
– | 41 nM | >10850 ug/mL | (5-{5-(4-{[2-(4-chlorophenyl)-4,4-dimethylcyclohex-1-en-1-yl]methyl}piperazin-1-yl)-2-[({4-[(4-fluorotetrahydro-2H-pyran-4-yl)methoxy]-3-nitrophenyl}sulfonyl)carbamoyl]phenoxy}-7H-pyrrolo[2,3-b]pyridin-7-yl)methyl dihydrogen phosphate [Example 3] | – | –
– | 42 nM | >6580 ug/mL | trans-4-[(4-{[4-(4-{[2-(4-chlorophenyl)-4,4-dimethylcyclohex-1-en-1-yl]methyl}piperazin-1-yl)-2-(1H-pyrrolo[2,3-b]pyridin-5-yloxy)benzoyl]sulfamoyl}-2-nitrophenoxy)methyl]cyclohexyl dihydrogen phosphate [Example 5] | – | –
< 1 µg/mL | – | – | CC1(C)CCC(CN2CCN(c3ccc(C(=O)NS(=O)(=O)c4ccc(OC[C@H]5CC[C@H](O)CC5)c([N+](=O)[O-])c4)c(Oc4cnc5[nH]ccc5c4)c3)CC2)=C(c2ccc(Cl)cc2)C1 [Example 7, Trans-4-(4-{[2-(4-chlorophenyl)-4,4-dimethylcyclohex-1-en-1-yl]methyl}piperazin-1-yl)-N-({4-[(4 hydroxycyclohexyl)methoxy]-3-nitrophenyl}sulfonyl)-2-(1H-pyrrolo[2,3-b]pyridin-5-yloxy)benzamide] | – | –
< 4 µg/mL | – | – | CC1(C)CCC(CN2CCN(c3ccc(C(=O)NS(=O)(=O)c4ccc(NCC5CCOCC5)c([N+](=O)[O-])c4)c(Oc4cnc5[nH]ccc5c4)c3)CC2)=C(c2ccc(Cl)cc2)C1 [Example 2B, 4-(4-{[2-(4-chlorophenyl)-4,4-dimethylcyclohex-1-en-1-yl]methyl}piperazin-1-yl)-N-({3-nitro-4-[(tetrahydro-2H-pyran-4-ylmethyl)amino]phenyl}sulfonyl)-2-(1H-pyrrolo[2,3-b]pyridin-5-yloxy)benzamide] | – | –
– | > 1000 nM | 169 ug/mL | 3-[(4-{[4-(4-{[2-(4-chlorophenyl)-4,4-dimethylcyclohex-1-en-1-yl]methyl}piperazin-1-yl)-2-(1H-pyrrolo[2,3-b]pyridin-5-yloxy)benzoyl]sulfamoyl}-2-nitrophenyl)amino]-2,2-dimethylpropyl dihydrogen phosphate [Example 4] | < 0.01 nM | –
< 1 µg/mL | – | – | CC1(C)CCC(CN2CCN(c3ccc(C(=O)NS(=O)(=O)c4ccc(OCC5(F)CCOCC5)c([N+](=O)[O-])c4)c(Oc4cnc5[nH]ccc5c4)c3)CC2)=C(c2ccc(Cl)cc2)C1 [Example 3E, 4-(4-{[2-(4-chlorophenyl)-4,4-dimethylcyclohex-1-en-1-yl]methyl}piperazin-1-yl)-N-({4-[(4-fluorotetrahydro-2H-pyran-4-yl)methoxy]-3-nitrophenyl}sulfonyl)-2-(1H-pyrrolo[2,3-b]pyridin-5-yloxy)benzamide] | – | –
< 1 µg/mL | – | – | CC(C)(CO)CNc1ccc(S(=O)(=O)NC(=O)c2ccc(N3CCN(CC4=C(c5ccc(Cl)cc5)CC(C)(C)CC4)CC3)cc2Oc2cnc3[nH]ccc3c2)cc1[N+](=O)[O-] [Example 6, 4-(4-{[2-(4-chlorophenyl)-4,4-dimethylcyclohex-1-en-1-yl]methyl}piperazin-1-yl)-N-({4-[(3-hydroxy-2,2-dimethylpropyl)amino]-3-nitrophenyl}sulfonyl)-2-(1H-pyrrolo[2,3-b]pyridin-5-yloxy)benzamide] | – | –

Molecule | solubility [1] | EC50 (RS4;11 cells) | Aqueous Solubility (pH 7.4) | Ki (GST-Bcl-2) | Aqueous Solubility (pH 7.4) ([1]; 50 mM phosphate pH 7.4, 25° C. or 37° C.)
(5-{5-(4-{[2-(4-chlorophenyl)-4,4-dimethylcyclohex-1-en-1-yl]methyl}piperazin-1-yl)-2-[({3-nitro-4-[(tetrahydro-2H-pyran-4-ylmethyl)amino]phenyl}sulfonyl)carbamoyl]phenoxy}-7H-pyrrolo[2,3-b]pyridin-7-yl)methyl dihydrogen phosphate [Example 2] | – | 180 nM | >4820 ug/mL | < 0.01 nM | –
CO[C@H]1CC[C@H](CNc2ccc(S(=O)(=O)NC(=O)c3ccc(N4CCN(CC5=C(c6ccc(Cl)cc6)CC(C)(C)CC5)CC4)cc3Oc3cc4ccnc-4n(COP(=O)(O)O)c3)cc2[N+](=O)[O-])CC1 [Example 1, {5-[5-(4-{[2-(4-chlorophenyl)-4,4-dimethylcyclohex-1-en-1-yl]methyl}piperazin-1-yl)-2-{[(4-{[(trans-4-methoxycyclohexyl)methyl]amino}-3-nitrophenyl)sulfonyl]carbamoyl}phenoxy]-7H-pyrrolo[2,3-b]pyridin-7-yl}methyl dihydrogen phosphate] | – | 310 nM | – | < 0.01 nM | >1159 ug/mL
